Values of other authors as cited in patent US20120164210A1, “PHOTODYNAMIC THERAPEUTIC AGENT HAVING CELL-SPECIFIC ACTIVE ACCUMULATION PROPERTIES” (The University of Tokyo, priority 2008, published 2012).

Columns and labels:
tumor tissue = settings: in vivo
[1] = after administration, light shielding required

incorporation into tumor tissue relative to normal tissue (tumor tissue): about 4 times
sunlight hypersensitivity as a complication [1]: cause sunlight hypersensitivity
Substance: Photofrin
